A short description of assay [1]: Weight loss and diarrhea in Long Evans rats seven days after intra-arterial Cisplatin with or without i.v. NAC (Example 1). The class given is in vivo. To be noted: Cisplatin 6 mg/kg intra-arterially. Here is the method: The graph shown as FIG. 1 represents the weight loss in grams in Long Evans rats seven days after administration of Cisplatin and NAC. Six mg/kg of Cisplatin was given intra-arterially either with or without intravenous (i.v.) administration of NAC at a dosage of 400 mg/kg. The NAC was administered about 15 minutes prior to the Cisplatin administration. The group without NAC consisted of 11 members. The NAC-treated group consisted of 8 members.
In the method of Example 1 for Cisplatin, the Long Evans rats were weighed, induced with isoflurane inhalant (2%+1.5% O2), intubated, placed on a respirator, and prepped for surgery. Isoflurane was then replaced with propofol (800 ug/kg/min i.v.) and a 50% nitrous/50% oxygen mixture. A ventral midline incision was made from mandible to manubrium. The left carotid bifurcation was exposed and freed, and the left external carotid artery was cannulated. NAC was then given intravenously to the treated group and intravenous saline was given to the untreated group. After 15 minutes, the left internal carotid artery was clamped, and Cisplatin (6 mg/kg) was infused through the external carotid catheter. The cannula was removed, and the skin incisions were closed using 4-0 Vicryl in a simple continuous pattern.
Seven days after Cisplatin infusion, the rats were weighed. These body weights were compared to those taken before surgery. […] This is correlated with renal failure and/or mucositis in the untreated group.

Assay [2] deals with Normal human gastric cells (NHGC). The assay is described as follows: WST-1 colorometric assay, chemoprotection against BR96-dox toxicity (Example 4). The assay is classed as cell-based. The settings on record: for chemoprotection against BR96-dox toxicity: first test: drug and chemoprotectant co-incubated for 2-3 days. The method, then:
Normal human gastric cells (NHGC) express high levels of the LewisY antigen recognized by the BR96 monoclonal antibody. BR-96 and BR-96-Dox toxicity was examined in NHGC to determine if toxicity could be protected against with thiol chemoprotectants.
(§1) Cytotoxicity is determined as the proportion of live cells, in comparison to untreated controls, using the WST-1 colorometric assay available from Roche Diagnostics, Indianapolis, Ind.

Assay [3] is described as follows: Weight loss in Long Evans rats 7 days after cisplatin to the aorta, 15 minutes after i.v. saline or NAC (Example 5). The assay is classed as in vivo. The settings on record: cisplatin 6 mg/kg via right external carotid artery cannula; NAC 400 mg/kg i.v. 15 minutes before; n=8 per group. The method, then:
Before the study began, the rats were weighed to establish a baseline. Long Evans rats were treated with cisplatin 6 mg/kg delivered to the aorta via a right external carotid artery cannula 15 minutes after intravenous infusion of saline (n=8) or NAC 400 mg/kg (n=8). This procedure was preformed by the rats being induced with isoflurane inhalant (2%+1.5% oxygen), intubated, placed on a respirator and prepped for surgery. Isoflurane was then replaced with propofol (800 μg/kg/min i.v.) and a 50% nitrous/50% oxygen mixture. A ventral midline incision was made from mandible to manubrium. The right carotid bifurcation was exposed and freed, and the right external carotid artery was cannulated. NAC (400 mg/kg) was then given to the treated group (n=8) and i.v. saline was given to the untreated group (n=8). After 15 minutes, the right internal carotid artery was clamped and cisplatin (6 mg/kg) was rapidly infused through the external carotid catheter. The cannula was removed and the skin incisions were closed using 4-0 Vicryl in a simple continuous pattern. Health and well being were monitored daily post-surgery. After seven days, the animals were weighed and this value compared to the baseline.

For a further assay, the system named is LX-1 cells. Put plainly: Chemoprotection in LX-1 cells (Example 4). The assay is classed as cell-based. To be noted: low dosages, about 0.2 to about 0.5 mg/ml. The method, then:
as §1
Low dosages, about 0.2 to about 0.5 mg/ml, of NAC were protective against alkylators in LX-1 cells. NAC was 10-90% chemoprotective of NHGC at high dosages, such as from about 1-5 mg/ml.

The next assay deals with GM294 human fibroblasts. Put plainly: WST colorometric cytotoxicity assay, chemoprotection with or without BSO cytoenhancement (Example 3). The assay is classed as cell-based. The settings on record: NAC 1000 μg/ml added immediately after melphalan, cisplatin, carboplatin or etoposide phosphate; with or without 100 μM BSO pretreatment. Here is the method: Cytotoxicity was assessed in GM294 human fibroblasts, 1×10^4 cells per well in 96 well plates, using the WST colorometric assay. Cells were pretreated with or without BSO, 100 μM for 18 hours prior to addition of chemotherapeutics (melphalan=10 μg/ml, carboplatin=100 μg/ml, cisplatin=7.5 μg/ml, etoposide phosphate 100 μg/ml) either alone (open bar), or with NAC rescue, (1000 μg/ml N-acetylcysteine, striped bar), BSO cytoenhancement (black bar), or BSO cytoenhancement and NAC rescue (cross hatched bar). Data are expressed as the percentage of live cells compared to control samples (without chemotherapy) and each point represents the mean±s.d. of 4 wells. This was also repeated with normal human gastric cells (NHGC) and gastric epithelial cells.
The fibroblast cells were either preincubated or not preincubated with 100 μM BSO for about 18-24 hours prior to addition of chemotherapy, and rescue consisted of 1000-2000 μg/ml of a thiol anti-mucosal injury agent added immediately after chemotherapy. […] Protection of epithelia cells allows for the prevention and treatment of mucositis of these tissues.

The next assay deals with LX-1 SCLC. Put plainly: Weight loss and survival in nude rats 12 days after intracerebral inoculation with LX-1 SCLC cells, with or without oral TMZ (Example 2). The class given is in vivo. The method, then: TMZ was given at a dosage of 5 mg orally, once daily, on days 6-11. There were 10 members in the untreated group and seven members in the group treated with TMZ.
For the intracerebral inoculations, the nude rats were anesthetized with a mixture of intraperitoneal ketamine (60 mg/kg) and diazepam (7.5 mg/kg). The head was shaved and scrubbed with Betadine, a midline incision made, and a 2 mm burr hole using stereotaxic coordinates was made. A 27 g needle was used for inoculation with a 100 ul Hamilton syringe, placed […] ventral to the surface, deep in the right caudate putamen. Inoculants used were LX-1 SCLC. The needle was withdrawn and the incision closed with wound clips. One group of rats received no treatment, while the other group received oral 5 mg doses of TMZ, an alkylating agent, once daily on days 6-11 after inoculation, delivered through a feeding tube while under isoflurane anesthesia. On day 12, all rats were weighed, sacrificed, and the brains removed and fixed in formalin for subsequent tumor-volume analysis.
It is believed that TMZ effects the size of any lesions in the brain. The TMZ may decrease the size of any lesions in the brain; those animals experiencing more constant or improved appetite than animals with larger tumors which experienced appetite suppression.

For assay [4] the following is noted: Brizel DM, J Clin Oncol 2000; cited from earlier work.
[5] abbreviates: NAC 400 mg/kg i.v. 15 minutes prior.

Here are results for 6 molecules from patent US20040198841A1, “Use of thiol-based compositions in ameliorating mucosal injury” (Oregon Health & Science University, priority 2003, published 2004).

Molecules are shown by their SMILES.

On to `CC(=O)N[C@@H](CS)C(=O)O` [NAC, N-acetylcysteine], for which, in assay [1] (setting [5]), the “diarrhea, group without NAC compared to NAC treated group” value is recorded as “greater diarrhea than the NAC treated group”; the “subjective condition of untreated rats compared to NAC-treated group” value is “more depressed, cachexic, and dehydrated than the NAC-treated group”. Also, the “loss of body weight after 7 days, group without NAC compared to NAC-treated group” value in assay [1] (NAC 400 mg/kg i.v. about 15 minutes prior, unpaired t-test p<0.0002) is recorded as “significantly larger loss of body weight”. In addition, the “chemoprotective of NHGC” value in assay [2] (first test: co-incubated for 2-3 days, high dosages, about 1-5 mg/ml) is on record as 10-90%. For the same molecule, in assay [2] (second test: 4 hour pulsed treatment with BR-96-dox and NAC), the “chemoprotective, pulsed treatment” value is 0-20%. The “weight loss after 7 days compared to control” value in assay [3] is listed as “less weight loss than the control”. Moreover, the “protection against alkylators in LX-1 cells” value with LX-1 cells is given as “protective”. In the assay with GM294 human fibroblasts, the “chemoprotection of fibroblast cells (percentage of live cells)” value is “protective effect”.
In the case of `CCOC(=O)CNC(=O)[C@H](CS)NC(=O)CC[C@H](N)C(=O)O` [GSH ethyl ester, glutathione ethyl ester], the “chemoprotection against BR96-dox toxicity” value in assay [2] is “No chemoprotection”.
In the case of `Cn1nnc2c(C(N)=O)ncn2c1=O` [TMZ, Temazolamide], in the assay on LX-1 SCLC (TMZ 5 mg orally once daily on days 6-11), the “subjective activity at day 12 compared to untreated group” value was “more active and responsive”. In addition, in the assay with LX-1 SCLC (TMZ 5 mg orally once daily on days 6-11, three rats without TMZ did not survive to day 12), the “survival to day 12” value is listed as “all of the TMZ rats survived to day 12”. Moreover, the “loss of body weight at day 12, group without TMZ compared to group treated with TMZ” value with LX-1 SCLC (TMZ 5 mg orally once daily on days 6-11 after inoculation, unpaired t-test p<0.0041) is reported as “significantly higher loss of body weight”.
On to `O=S([O-])([O-])=S.[Na+].[Na+]` [STS, sodium thiosulfate], for which the “chemoprotection against BR96-dox toxicity” value in assay [2] is reported as “No chemoprotection”.
On the same count and under the same terms, under `CSCC[C@@H](N)C(=O)O` [d-Methionine, D-methionine] stands “No chemoprotection”.
`NCCCNCCSP(=O)(O)O` [Amifostine, amifostine]: the “effect on mucositis in patients undergoing radiation therapy” value in assay [4] is given as “not to reduce mucositis”.
